According to PubChem BioAssay AID2060337 (Molecular Pharmacology Branch, DTP, NCI, 2025):
Values joined by “and” are separate entries in the source; they are usually repeats but may differ in a detail not shown here. Equal values may be shown once. Values belong to the molecule of their own block, whether it stands above or below them.

System: 832693-133-R-J1-PDC multi-cell spheroids, viability
Assay: Anticancer human tumor 832693-133-R-J1-PDC patient-derived head and neck squamous carcinoma cell line growth inhibition [IpAb]
Conditions: for viability, T/C: stronger effect = lower value
Description: Combinatorial screen of targeted agents with ipatasertib and abemaciclib in multi-cell type tumor spheroids
A high-throughput screen of multi-cell type tumor spheroids was designed to identify active combinations of targeted small molecules and ipatasertib or abemaciclib. Complex spheroids include a stromal component modeled by human endothelial cells (HUVEC) and fibroblasts modeled by human mesenchymal stem cells (MSCs). The concentration ranges selected for each drug and investigational agent were based upon clinically achievable concentrations if the clinical Cmax of the agent was known.
Compounds. The drugs and investigational agents: ipatasertib (NSC767898), abemaciclib(NSC768073), selumetinib (NSC741078), trametinib (758246), adavosertib (NSC754352), everolimus (NSC733504), sapanisertib (NSC764658), vemurafenib (NSC761431), venetoclax (NSC766270), copanlisib (NSC809693), apelisib (NSC765974), palbociblib (NSC758247), vemurafenib (NSC761431), dabrafenib (NSC764134), ravoxertinib (NSC781343), BMS-387032 (NSC767048), sotorasib (NSC818433), talazoparib (NSC767125) and afursertib (NSC778305), were obtained from the National Cancer Institute (NCI) Developmental Therapeutics Program Chemical Repository. The FDA-approved anticancer drug set is available from the NCI Developmental Therapeutics Program. […] The stock solutions were prepared in dimethyl sulfoxide (DMSO, Sigma-Aldrich, St. Louis, MO, cat. D2650) at 800-fold the tested concentration and stored at -70 degrees C prior to their use. All drugs and investigational agents were tested over a range starting from a high concentration at or near the clinical Cmax and decreasing in half-log increments. If the clinical Cmax for an agent had not been determined, the highest concentration tested was 10 microM.
NCI60 Cell Culture. NCI60 cell lines were obtained from the NCI Developmental Therapeutics Program Tumor Repository. For each lot of cells, the Repository performed Applied Biosystems AmpFLSTR Identifiler testing with PCR amplification to confirm consistency with the published Identifier STR profile for each cell line. Cells were kept in continuous culture for no more than 20 passages. The optimal seeding densities for each of the cell lines at each time point assessed were determined prior to performing the concentration response studies. Briefly, the NCI60 human tumor lines were grown as monolayers in RPMI 1640 medium supplemented with 10% FBS and 2 mmol/L L-glutamine.
An additional 9 lines were from the NCI60 cell line panel including MDA-MB-231 breast carcinoma, MDA-MB-468 breast carcinoma, MCF7 breast carcinoma, Hs578T breast carcinoma, MALME-3M melanoma, SK-MEL-2 melanoma, SK-OV-3 ovarian carcinoma, DU-145 prostate carcinoma, PC-3 prostate carcinoma, all cell lines along with major genetic alterations are listed on Table 2. Pooled donor human umbilical vein endothelial cells (HUVEC, Lonza, cat. CC-2519) and human mesenchymal stem cells (hMSC, Lonza, cat. PT-2501) were purchased from Lonza (Walkersville, MD).
PDMR cell lines were grown in complete medium (DC medium): Dulbecco's modified Eagle's medium (DMEM)/F12 supplemented with 5% fetal bovine serum (FBS), 2 mM L-glutamine, 100 U/mL penicillin and 100 µg/ml streptomycin, 0.4 µg/ml hydrocortisone, 10 ng/ml epidermal growth factor (EGF) recombinant human protein, 24 µg/mL adenine, and 0.1 mg/mL primocin. During culture from frozen stock vials, PDMR cells were cultured in the same medium containing 10 µM Y-27632 (see Table 3). The PDCs were cultured in complete DMEM/F12 media without 10 microM Y-27632 dihydrochloride for at least two passages prior to the screen. The pooled donor HUVEC and hMSC were cultured in endothelial cell growth medium 2 (PromoCell, Heidelberg, Germany, cat. C-22011) and mesenchymal stem cell growth medium 2 (PromoCell, cat. C-28009), respectively. For all experiments, HUVEC and hMSC were used at passages </=5.
[…]
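Note: spheroids exposed to the drugs for one week before the viability readout.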
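Throughout, for viability, T/C: 100% = DMSO vehicle control wells.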

SMILES: Cc1nc(NC(=O)N2CCCC2C(N)=O)sc1-c1ccnc(C(C)(C)C(F)(F)F)c1 (stereo not given)
viability, T/C (compound 0.0316 µM): 93.3% and 84.1% | viability, T/C (compound 0.1 µM): 80.6% and 87.4% | viability, T/C (compound 0.316 µM): 66.7% and 55.5% | viability, T/C (compound 1 µM): 36.9% and 39.1% | viability, T/C (compound 3.16 µM): 17.8% and 12.8% | viability, T/C (compound 10 µM): 4.84% and 2.57% | IC50 (curve of compound): 599 nM and 533 nM

SMILES: Cn1ncnc1[C@H]1c2n[nH]c(=O)c3cc(F)cc(c23)N[C@@H]1c1ccc(F)cc1
viability, T/C (compound 0.000316 µM): 110% and 111% | viability, T/C (compound 0.001 µM): 97.9% and 109% | viability, T/C (compound 0.00316 µM): 98.3% and 96.9% | viability, T/C (compound 0.01 µM): 86.5% and 107% | viability, T/C (compound 0.0316 µM): 95.6% and 93.8% | viability, T/C (compound 0.1 µM): 86.1% and 84.1% | IC50 (curve of compound): > 100 nM

SMILES: Cn1cnc2c(F)c(Nc3ccc(Br)cc3Cl)c(C(=O)NOCCO)cc21 + CC(C)NCC(C(=O)N1CCN(c2ncnc3c2C(C)CC3O)CC1)c1ccc(Cl)cc1
IC50 (curve of first compound, second compound 0.1 µM): 95.2 nM | IC50 (curve of first compound, second compound 0.316 µM): < 9.49 nM | IC50 (curve of first compound, second compound 1 µM): < 9.49 nM | IC50 (curve of first compound, second compound 3.16 µM): < 9.49 nM | IC50 (curve of first compound, second compound 10 µM): 160 nM | viability, T/C (second compound 0.1 µM, first compound 0.00949 µM): 77% | viability, T/C (second compound 0.1 µM, first compound 0.03 µM): 66.9% | viability, T/C (second compound 0.1 µM, first compound 0.0949 µM): 45.5% | viability, T/C (second compound 0.1 µM, first compound 0.3 µM): 38.7% | viability, T/C (second compound 0.1 µM, first compound 0.949 µM): 27.1% | viability, T/C (second compound 0.1 µM, first compound 3 µM): 14.7% | viability, T/C (second compound 0.316 µM, first compound 0.00949 µM): 49.5% | viability, T/C (second compound 0.316 µM, first compound 0.03 µM): 39.9% | viability, T/C (second compound 0.316 µM, first compound 0.0949 µM): 33.7% | viability, T/C (second compound 0.316 µM, first compound 0.3 µM): 30.6% | viability, T/C (second compound 0.316 µM, first compound 0.949 µM): 17.4% | viability, T/C (second compound 0.316 µM, first compound 3 µM): 11.2% | viability, T/C (second compound 1 µM, first compound 0.00949 µM): 44.3% | viability, T/C (second compound 1 µM, first compound 0.03 µM): 32% | viability, T/C (second compound 1 µM, first compound 0.0949 µM): 30.4% | viability, T/C (second compound 1 µM, first compound 0.3 µM): 17.7% | viability, T/C (second compound 1 µM, first compound 0.949 µM): 12.5% | viability, T/C (second compound 1 µM, first compound 3 µM): 8.67% | viability, T/C (second compound 3.16 µM, first compound 0.00949 µM): 42.9% | viability, T/C (second compound 3.16 µM, first compound 0.03 µM): 35.3% | viability, T/C (second compound 3.16 µM, first compound 0.0949 µM): 28.6% | viability, T/C (second compound 3.16 µM, first compound 0.3 µM): 22.4% | viability, T/C (second compound 3.16 µM, first compound 0.949 µM): 15.8% | viability, T/C (second compound 3.16 µM, first compound 3 µM): 11.9% | viability, T/C (second compound 10 µM, first compound 0.00949 µM): 64% | viability, T/C (second compound 10 µM, first compound 0.03 µM): 68.1% | viability, T/C (second compound 10 µM, first compound 0.0949 µM): 58.7% | viability, T/C (second compound 10 µM, first compound 0.3 µM): 38.7% | viability, T/C (second compound 10 µM, first compound 0.949 µM): 14.6% | viability, T/C (second compound 10 µM, first compound 3 µM): 4.33%

Further lines, with some results ahead:

IC50 (curve of compound): 241 nM and 167 nM
SMILES: Cn1cnc2c(F)c(Nc3ccc(Br)cc3Cl)c(C(=O)NOCCO)cc21
viability, T/C (compound 0.00949 µM): 79.6% and 64.7% | viability, T/C (compound 0.03 µM): 69.7% and 59.6% | viability, T/C (compound 0.0949 µM): 57.5% and 53.9% | viability, T/C (compound 0.3 µM): 48.1% and 43.7% | viability, T/C (compound 0.949 µM): 38.3% and 35.9% | viability, T/C (compound 3 µM): 19.1% and 15%

IC50 (curve of compound): 5060 nM and 5130 nM
SMILES: Cn1ncc(Cl)c1-c1cc(C(=O)NC(CN)Cc2cccc(F)c2)sc1Cl (stereo not given)
viability, T/C (compound 0.0316 µM): 99.5% and 99.8% | viability, T/C (compound 0.1 µM): 89.4% and 102% | viability, T/C (compound 0.316 µM): 74.4% and 79.5% | viability, T/C (compound 1 µM): 73.6% and 68.3% | viability, T/C (compound 3.16 µM): 85% and 86% | viability, T/C (compound 10 µM): 0.3% and 0.39%

IC50 (curve of compound): 1070 nM and 1650 nM
SMILES: Cn1nccc1Nc1nccc(-c2ccn(C(CO)c3ccc(Cl)c(F)c3)c(=O)c2)n1 (stereo not given)
viability, T/C (compound 0.0316 µM): 97.1% and 93.1% | viability, T/C (compound 0.1 µM): 77% and 82.1% | viability, T/C (compound 0.316 µM): 64.1% and 70.2% | viability, T/C (compound 1 µM): 57.1% and 65.9% | viability, T/C (compound 3.16 µM): 34.3% and 33.6% | viability, T/C (compound 10 µM): 13% and 24.2%
